According to article PMC7997032, “Organic synthesis and anti-influenza A virus activity of cyclobakuchiols A, B, C, and D” (PLoS ONE, 2021):
“And” between values parts separate entries of the source, which are not always exact repeats. Equal values may be shown once.

Tested on: A/PR/8/34 virus
Test: Immunofluorescence staining of viral NP in influenza A virus-infected MDCK cells
Settings: for NP/DAPI (%) ave: average of 9 wells; for NP/DAPI (%): single well
Experimental: MDCK cells were seeded on a 96-well plate at 1 × 10^4 cells/well. […] Each mixture was added to the cells at 37°C in the presence of 5% CO2. […] After influenza A viral infection for 24 h, the cells were fixed with 4% paraformaldehyde in phosphate-buffered saline (PBS) for 30 min at 4°C and subsequently permeabilized by the addition of 0.3% Triton X-100 for 20 min at 25°C. A mouse primary antibody was used to detect the NP of A/PR/8/34 or A/WSN/33 viruses (FluA-NP 4F1; SouthernBiotech, AL, USA). Alexa Fluor488-conjugated goat anti-mouse IgG (H + L) antibody (Thermo Fisher Scientific) was used as the secondary antibody. Cell nuclei were then stained using diamidino-2-phenylindole (DAPI) (Thermo Fisher Scientific). Wells were photographed using a fluorescence microscope (BIOREVO BZ-X700; Keyence, Osaka, Japan). The proportion of influenza A NP-positive cells per DAPI-positive cells was calculated based on measurements recorded using BZ-X Analyzer software (Keyence).

C=C[C@@](C)(/C=C/c1ccc(O)cc1)CCC=C(C)C [(+)-(S)-bakuchiol, reference compound]
percentage of influenza A NP-positive cells relative to DMSO (A/PR/8/34, 3.1 μM, 24 h, Fig 4B): significantly reduced
NP/DAPI (%) ave (A/PR/8/34, 3.13 uM): 3.314%
NP/DAPI (%) ave (A/PR/8/34, 6.25 uM): 1.176%
percentage of influenza A NP-positive cells compared with the 5-treatment (A/PR/8/34, 6.3 μM, 24 h, Fig 4B): significantly reduced
NP/DAPI (%) ave (A/PR/8/34, 12.5 uM): 0.5619%
NP/DAPI (%) (A/PR/8/34, 12.5 uM, listed as (+)-S-Bakuchiol): 1.274% and 0.625% and 0.6742% and 0.2454% and 0.2653% and 0.5128% and 0.5703%
NP/DAPI (%) (A/PR/8/34, 12.5 uM, listed as (+)-S-bakuchiol): 0.4184%
NP/DAPI (%) ave (A/PR/8/34, 25 uM): 0.5226%
percentage of influenza A NP-positive cells relative to DMSO (A/PR/8/34, 6.3–12.5 μM, 24 h, Fig 4B): significantly reduced
IC50 (Influenza A virus, PR/8, MDCK, read-out: half maximal (50%) inhibitory concentration (IC50)): 2100 ± 1200 nM
